Measurements published in patent US20040063746A1, “Indole, azaindole and related heterocyclic ureido and thioureido piperazine derivatives” (priority 2002, published 2004).
pEC50: −log10 of the molar value.

Test system: HIV-1 single-round infectious reporter virus
Experiment: microbe, parasite or virus in culture
Type: cell-based
Details: Human immunodeficiency virus 1, HeLa, 72 h, read-out: EC50 Group from Table 1
Description: Virus production-Human embryonic Kidney cell line, 293T, was propagated in Dulbecco's Modified Eagle Medium (Invitrogen, Carlsbad, Calif.) containing 10% fetal Bovine serum (FBS, Sigma, St. Louis, Mo.).
Virus infection—Human epithelial cell line, HeLa, expressing the HIV-1 receptor CD4 was propagated in Dulbecco's Modified Eagle Medium (Invitrogen, Carlsbad, Calif.) containing 10% fetal Bovine serum (FBS, Sigma, St. Louis, Mo.) and supplemented with 0.2 mg/mL Geneticin (Invitrogen, Carlsbad, Calif.).
Virus-Single-round infectious reporter virus was produced by co-transfecting human embryonic Kidney 293 cells with an HIV-1 envelope DNA expression vector and a proviral cDNA containing an envelope deletion mutation and the luciferase reporter gene inserted in place of HIV-1 nef sequences (Chen et al, Ref. 41). Transfections were performed using lipofectAMINE PLUS reagent as described by the manufacturer (Invitrogen, Carlsbad, Calif.).
1. HeLa CD4 cells were plated in 96 well plates at a cell density of 1×10^4 cells per well in 100 μl Dulbecco's Modified Eagle Medium containing 10% fetal Bovine serum and incubated overnight.
2. Compound was added in a 2 μl dimethylsulfoxide solution, so that the final assay concentration would be ≦10 μM.
3. 100 μl of single-round infectious reporter virus in Dulbecco's Modified Eagle Medium was then added to the plated cells and compound at an approximate multiplicity of infection (MOI) of 0.01, resulting in a final volume of 200 μl per well.
4. Virally-infected cells were incubated at 37 degrees Celsius, in a CO2 incubator, and harvested 72 h after infection.
5. Viral infection was monitored by measuring luciferase expression from viral DNA in the infected cells using a luciferase reporter gene assay kit, as described by the manufacturer (Roche Molecular Biochemicals, Indianapolis, Ind.). Infected cell supernatants were removed and 50 μl of lysis buffer was added per well. After 15 minutes, 50 μl of freshly-reconstituted luciferase assay reagent was added per well. Luciferase activity was then quantified by measuring luminescence using a Wallac microbeta scintillation counter.
7. An EC50 provides a method for comparing the antiviral potency of the compounds of this invention. The effective concentration for fifty percent inhibition (EC50) was calculated with the Microsoft Excel Xlfit curve fitting software. For each compound, curves were generated from percent inhibition calculated at 10 different concentrations by using a four paramenter logistic model (model 205). Table 1 is the key for the data in Table 2.

SMILES | pEC50
COC(=O)c1ccc(F)c2c(C(=O)C(=O)N3CCN(C(=O)N(C)C)CC3)c[nH]c12 [Example 1] | 5.30 to 6.00
CNC(=O)c1ccc(F)c2c(C(=O)C(=O)N3CCN(C(=O)N(C)C)CC3)c[nH]c12 [Example 2] | > 6.00
CNC(=O)c1ccc(F)c2c(C(=O)C(=O)N3CCN(C(=S)N(C)C)CC3)c[nH]c12 [Example 3] | > 6.00
CNC(=O)c1ccc(F)c2c(C(=O)C(=O)N3CCN(C(=O)N(C)c4ccccc4)CC3)c[nH]c12 [Example 4] | 5.30 to 6.00
CCN(CC)C(=O)N1CCN(C(=O)C(=O)c2c[nH]c3c(C(=O)NC)ccc(F)c23)CC1 [Example 5] | 5.30 to 6.00
CNC(=O)c1ccc(F)c2c(C(=O)C(=O)N3CCN(C(=O)N(C(C)C)C(C)C)CC3)c[nH]c12 [Example 6] | < 5.30
CNC(=O)c1ccc(F)c2c(C(=O)C(=O)N3CCN(C(=O)NC(C)(C)C)CC3)c[nH]c12 [Example 7] | < 5.30
CCCCNC(=S)N1CCN(C(=O)C(=O)c2c[nH]c3c(C(=O)NC)ccc(F)c23)CC1 [Example 8] | < 5.30
CN(C)C(=O)N1CCN(C(=O)C(=O)c2c[nH]c3c(-n4cncn4)ncc(F)c23)CC1 [Example 9] | > 6.00
CNC(=O)c1ccc(F)c2c(C(=O)C(=O)N3CCN(C(=O)N4CCCC4)CC3)c[nH]c12 [Example 15] | 5.30 to 6.00
